Target: T1, Polyphenol oxidase 2 (Agaricus bisporus, UniProt O42713)
T1 sequence (O42713 whole entry): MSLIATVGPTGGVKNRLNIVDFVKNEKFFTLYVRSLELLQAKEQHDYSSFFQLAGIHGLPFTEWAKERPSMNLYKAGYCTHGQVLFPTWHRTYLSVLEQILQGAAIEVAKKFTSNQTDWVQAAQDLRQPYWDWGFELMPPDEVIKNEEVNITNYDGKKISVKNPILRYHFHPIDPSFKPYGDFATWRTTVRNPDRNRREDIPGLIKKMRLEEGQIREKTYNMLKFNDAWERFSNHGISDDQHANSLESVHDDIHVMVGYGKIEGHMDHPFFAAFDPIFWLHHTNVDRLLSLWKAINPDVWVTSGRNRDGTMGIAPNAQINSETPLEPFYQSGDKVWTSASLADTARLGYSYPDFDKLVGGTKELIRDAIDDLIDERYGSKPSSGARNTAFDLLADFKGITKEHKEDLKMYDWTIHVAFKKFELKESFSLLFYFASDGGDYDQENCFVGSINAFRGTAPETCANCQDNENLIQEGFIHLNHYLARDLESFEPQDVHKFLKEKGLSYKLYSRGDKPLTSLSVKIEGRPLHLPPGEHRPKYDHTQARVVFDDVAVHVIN
Experiment: Spectrophotometric Assay
Conditions: pH 6.8; 25 °C
Procedure: All compounds were dissolved in DMSO (final DMSO concentration in test solution was 2.0%). Phosphate buffer, pH 6.8, was use to dilute the DMSO stock solution of test compounds. Thirty units of mushroom tyrosinase (0.5 mg/mL) were first pre-incubated with the compounds, in 50 mM phosphate buffer (pH 6.8), for 10 min at 25°C, followed by addition of L-DOPA (0.5 mM). The enzyme reaction was monitored by measuring the change in absorbance at 475 nm of formation of the DOPA chrome for 1 min. The measurement was performed in triplicate for each concentration and averaged before further calculation.

IC50 [µM] | Compound
110 | O=C(/C=C/c1ccccc1)c1ccc(O)cc1O [1-(2,4-dihydroxyphenyl)-3-phenylprop-2-en-1-one (4)]
142 | COc1ccc(C(=O)/C=C/c2ccccc2)cc1 [1-(4-methoxyphenyl)-3-phenylprop-2-en-1-one (6)]
117 | O=C(/C=C/c1ccccc1)c1cccc(Cl)c1 [1-(3-chlorophenyl)-3-phenylprop-2-en-1-one (11)]
